Laboratory results taken from patent publication US10052320B2, “Substituted quinoxalines as FGFR kinase inhibitors” (ASTEX THERAPEUTICS LIMITED, priority 2011, dated 2018).
Where two headings read alike, the source gives them in different places.

Legend:
KDR (h) (VEGFR2) = KDR (h) (VEGFR2) (Homo sapiens, UniProt P35968); test: KDR (VEGFR2) (enzymatic assay), TR-FRET; assay type: biochemical
Protocol: KDR (VEGFR2) (Enzymatic Assay)
In a final reaction volume of 30 μL, KDR (h) (150 ng/ml) was incubated with 50 mM HEPES pH 7.5, 6 mM MnCl2, 1 mM DTT, 0.1 mM Na3VO4, 0.01% Triton-X-100, 500 nM Btn-Flt3 and 3 μM ATP in the presence of compound (1% DMSO final). After incubation for 120 minutes at room temperature the reaction was stopped with 2.27 nM EU-anti P-Tyr, 7 mM EDTA, 31.25 nM SA-XL-665 and 0.02% BSA which was present for 60 minutes at room temperature. Time-Resolved Fluorescence Resonance Energy Transfer (TR-FRET) signal (ex340 nm. Em 620 nm, em 655 nm) was measured afterwards and results are expressed in RFU (Relative Fluorescence Units).

[1] = target: T1, Ba/F3-Flt3-transfected cells (Homo sapiens, UniProt P36888, cells depend on it, form not given); test: Ba/F3-Flt3 (minus IL3) cellular proliferation assay, Alamar Blue; assay type: cell-based
T1 sequence (P36888 1-993): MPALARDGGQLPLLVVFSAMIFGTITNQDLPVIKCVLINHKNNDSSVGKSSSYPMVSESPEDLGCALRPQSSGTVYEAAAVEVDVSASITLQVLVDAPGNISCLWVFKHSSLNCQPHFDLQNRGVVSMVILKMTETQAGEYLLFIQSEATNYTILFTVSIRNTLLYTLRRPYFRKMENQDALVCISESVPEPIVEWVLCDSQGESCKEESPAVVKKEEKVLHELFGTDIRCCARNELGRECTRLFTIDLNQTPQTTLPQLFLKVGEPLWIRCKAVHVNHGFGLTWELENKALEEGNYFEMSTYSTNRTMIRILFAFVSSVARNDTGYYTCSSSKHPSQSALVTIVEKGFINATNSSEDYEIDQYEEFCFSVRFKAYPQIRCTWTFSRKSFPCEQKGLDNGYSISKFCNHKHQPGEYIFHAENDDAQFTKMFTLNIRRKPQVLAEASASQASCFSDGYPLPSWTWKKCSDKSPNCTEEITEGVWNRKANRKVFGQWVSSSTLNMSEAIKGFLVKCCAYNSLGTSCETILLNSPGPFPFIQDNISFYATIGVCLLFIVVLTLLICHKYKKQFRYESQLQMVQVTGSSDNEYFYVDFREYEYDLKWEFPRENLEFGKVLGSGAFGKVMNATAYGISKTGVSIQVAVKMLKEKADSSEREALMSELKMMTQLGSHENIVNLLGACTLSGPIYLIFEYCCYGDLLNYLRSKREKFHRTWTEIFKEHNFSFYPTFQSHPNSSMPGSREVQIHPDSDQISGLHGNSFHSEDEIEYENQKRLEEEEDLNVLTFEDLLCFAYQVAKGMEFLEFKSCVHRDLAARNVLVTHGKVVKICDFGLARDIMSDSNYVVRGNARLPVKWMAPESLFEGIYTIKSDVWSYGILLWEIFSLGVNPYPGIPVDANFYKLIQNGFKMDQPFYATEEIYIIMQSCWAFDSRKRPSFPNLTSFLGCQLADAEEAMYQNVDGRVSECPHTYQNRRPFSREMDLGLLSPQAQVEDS
Protocol: Ba/F3-Flt3 (Minus IL3 or Plus IL3) (Cellular Proliferation Assay)
Cells were put in an incubator at 37° C. and 5% CO2. After 24 hours, 10 μl of Alamar Blue solution (0.5 mM K3Fe(CN)6, 0.5 mM KaFe(CN)6, 0.15 mM Resazurin and 100 mM Phosphate Buffer) was added to the wells, incubated for 4 hours at 37° C. and 5% CO2 before RFU's (Relative Fluorescence Units) (ex. 540 nm., em. 590 nm.) were measured in a flurorescence plate reader. […]
(§1) In a 96 well plate, 180 μl cell culture medium (phenol red free RPMI-1640, 10% FBS, 2 mM L-Glutamine and 50 μg/ml Gentamycin) containing 10000 cells per well of Ba/F3-Flt3-transfected cells were pipette and 20 μl of compound dilution in DMSO was added. Cells were put in an incubator at 37° C. and 5% CO2. After 24 hours, 40 μl of Alamar Blue solution (0.5 mM K3Fe(CN)6, 0.5 mM KaFe(CN)6, 0.15 mM Resazurin and 100 mM Phosphate Buffer) was added to the wells, incubated for 4 hours at 37° C. and 5% CO2 before RFU's (Relative Fluorescence Units) (ex. 540 nm., em. 590 nm.) were measured in a flurorescence plate reader.

FGFR3 (h) = FGFR3 (h) (Homo sapiens, UniProt P22607); test: FGFR3 (enzymatic assay), TR-FRET; assay type: biochemical; settings: read-out: FGFR 3 pIC50 (converted)
Chain of FGFR3 (h) (P22607 23-806): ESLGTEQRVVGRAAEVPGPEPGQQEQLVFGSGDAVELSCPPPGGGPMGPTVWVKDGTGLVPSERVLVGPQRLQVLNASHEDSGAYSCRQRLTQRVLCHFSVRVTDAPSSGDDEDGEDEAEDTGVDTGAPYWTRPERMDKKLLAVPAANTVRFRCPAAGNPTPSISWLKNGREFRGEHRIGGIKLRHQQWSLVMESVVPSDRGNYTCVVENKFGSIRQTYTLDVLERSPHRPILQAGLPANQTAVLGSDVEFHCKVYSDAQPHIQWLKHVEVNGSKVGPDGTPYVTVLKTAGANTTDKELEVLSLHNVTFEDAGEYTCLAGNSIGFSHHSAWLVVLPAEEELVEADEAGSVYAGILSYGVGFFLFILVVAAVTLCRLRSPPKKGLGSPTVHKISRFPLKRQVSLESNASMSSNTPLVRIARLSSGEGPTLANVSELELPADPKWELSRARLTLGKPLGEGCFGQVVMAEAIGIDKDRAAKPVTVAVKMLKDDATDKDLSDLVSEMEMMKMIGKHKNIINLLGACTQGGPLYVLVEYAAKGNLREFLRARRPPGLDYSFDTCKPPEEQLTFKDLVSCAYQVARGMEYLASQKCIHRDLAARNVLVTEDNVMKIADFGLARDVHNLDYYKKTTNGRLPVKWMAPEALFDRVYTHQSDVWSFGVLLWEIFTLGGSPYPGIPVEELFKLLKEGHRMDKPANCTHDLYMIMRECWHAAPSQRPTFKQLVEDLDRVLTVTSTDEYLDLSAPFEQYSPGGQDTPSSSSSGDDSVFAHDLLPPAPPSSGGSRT
Protocol: (§2) In a final reaction volume of 30 μL, FGFR3 (h) (40 ng/ml) was incubated with 50 mM HEPES pH 7.5, 6 mM MnCl2, 1 mM DTT, 0.1 mM Na3VO4, 0.01% Triton-X-100, 500 nM Btn-Flt3 and 25 μM ATP in the presence of compound (1% DMSO final). […] Time-Resolved Fluorescence Resonance Energy Transfer (TR-FRET) signal (ex340 nm. Em 620 nm, em 655 nm) was measured afterwards and results are expressed in RFU (Relative Fluorescence Units).

[2] = target: Ba/F3-FGFR4-transfected cells (Homo sapiens, UniProt P22455); test: Ba/F3-FGFR4 cellular proliferation assay, Alamar Blue; assay type: cell-based
Chain of Ba/F3-FGFR4-transfected cells (P22455 whole entry, change not shown): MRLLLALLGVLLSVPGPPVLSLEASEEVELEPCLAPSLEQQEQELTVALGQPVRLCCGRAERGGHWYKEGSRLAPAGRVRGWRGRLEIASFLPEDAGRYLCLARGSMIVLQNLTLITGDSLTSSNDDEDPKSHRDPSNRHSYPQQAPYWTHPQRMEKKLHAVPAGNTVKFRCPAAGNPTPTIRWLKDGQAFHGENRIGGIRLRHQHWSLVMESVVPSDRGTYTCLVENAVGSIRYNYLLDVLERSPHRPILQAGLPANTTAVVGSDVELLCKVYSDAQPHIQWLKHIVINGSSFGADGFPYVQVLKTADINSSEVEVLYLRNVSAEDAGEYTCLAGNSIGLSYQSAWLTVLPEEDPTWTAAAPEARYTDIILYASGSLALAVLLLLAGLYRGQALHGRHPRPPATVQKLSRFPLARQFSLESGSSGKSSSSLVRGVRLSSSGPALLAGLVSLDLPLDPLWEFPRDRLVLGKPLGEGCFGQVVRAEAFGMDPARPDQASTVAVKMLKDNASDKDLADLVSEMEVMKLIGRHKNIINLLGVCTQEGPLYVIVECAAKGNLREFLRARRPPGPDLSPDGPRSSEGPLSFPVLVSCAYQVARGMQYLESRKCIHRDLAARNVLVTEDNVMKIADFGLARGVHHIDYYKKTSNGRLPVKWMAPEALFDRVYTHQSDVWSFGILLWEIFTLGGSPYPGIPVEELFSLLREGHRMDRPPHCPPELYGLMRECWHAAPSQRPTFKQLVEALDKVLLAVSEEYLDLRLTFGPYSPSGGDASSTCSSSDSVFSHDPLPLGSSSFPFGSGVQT
Protocol: Ba/F3-FGFR4 (Cellular Proliferation Assay)
as §1, with “a 384” for “a 96”, “plate, 100 nl of compound dilution in DMSO was sprayed before adding 50” for “plate, 180”, “containing 20000” for “containing 10000”, “of Ba/F3-FGFR4-transfected cells.” for “of Ba/F3-Flt3-transfected cells were pipette and 20 μl of compound dilution in DMSO was added.”, “hours, 10” for “hours, 40”

FGFR2 (h) = FGFR2 (h) (Homo sapiens, UniProt P21802); test: FGFR2 (enzymatic assay), TR-FRET; assay type: biochemical; settings: read-out: FGFR 2 pIC50 (converted)
Chain of FGFR2 (h) (P21802 22-821): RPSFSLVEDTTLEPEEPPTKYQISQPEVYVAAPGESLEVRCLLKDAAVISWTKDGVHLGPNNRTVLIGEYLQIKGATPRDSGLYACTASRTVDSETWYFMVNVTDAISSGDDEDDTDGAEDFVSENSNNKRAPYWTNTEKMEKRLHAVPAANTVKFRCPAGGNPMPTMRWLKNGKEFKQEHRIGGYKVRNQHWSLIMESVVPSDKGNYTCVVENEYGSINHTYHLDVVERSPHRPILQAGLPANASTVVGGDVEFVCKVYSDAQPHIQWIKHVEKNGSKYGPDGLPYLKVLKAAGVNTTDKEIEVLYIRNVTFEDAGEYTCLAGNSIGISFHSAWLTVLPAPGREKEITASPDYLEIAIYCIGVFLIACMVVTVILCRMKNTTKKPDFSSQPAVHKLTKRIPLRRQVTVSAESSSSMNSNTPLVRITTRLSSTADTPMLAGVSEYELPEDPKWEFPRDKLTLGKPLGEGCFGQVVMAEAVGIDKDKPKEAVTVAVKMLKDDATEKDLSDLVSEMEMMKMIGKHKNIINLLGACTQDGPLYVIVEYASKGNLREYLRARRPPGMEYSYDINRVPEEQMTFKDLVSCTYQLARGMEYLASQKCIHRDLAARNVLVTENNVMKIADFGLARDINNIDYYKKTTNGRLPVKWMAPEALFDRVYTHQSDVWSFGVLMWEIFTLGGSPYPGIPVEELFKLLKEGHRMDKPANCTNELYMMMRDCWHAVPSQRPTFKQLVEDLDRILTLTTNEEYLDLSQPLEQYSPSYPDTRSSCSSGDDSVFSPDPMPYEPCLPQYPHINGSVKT
Protocol: as §2, with “FGFR2” for “FGFR3”, “(150” for “(40”, “0.4” for “25”, “in” for “in RFU”

Chain of KDR (h) (VEGFR2) (P35968 20-1356): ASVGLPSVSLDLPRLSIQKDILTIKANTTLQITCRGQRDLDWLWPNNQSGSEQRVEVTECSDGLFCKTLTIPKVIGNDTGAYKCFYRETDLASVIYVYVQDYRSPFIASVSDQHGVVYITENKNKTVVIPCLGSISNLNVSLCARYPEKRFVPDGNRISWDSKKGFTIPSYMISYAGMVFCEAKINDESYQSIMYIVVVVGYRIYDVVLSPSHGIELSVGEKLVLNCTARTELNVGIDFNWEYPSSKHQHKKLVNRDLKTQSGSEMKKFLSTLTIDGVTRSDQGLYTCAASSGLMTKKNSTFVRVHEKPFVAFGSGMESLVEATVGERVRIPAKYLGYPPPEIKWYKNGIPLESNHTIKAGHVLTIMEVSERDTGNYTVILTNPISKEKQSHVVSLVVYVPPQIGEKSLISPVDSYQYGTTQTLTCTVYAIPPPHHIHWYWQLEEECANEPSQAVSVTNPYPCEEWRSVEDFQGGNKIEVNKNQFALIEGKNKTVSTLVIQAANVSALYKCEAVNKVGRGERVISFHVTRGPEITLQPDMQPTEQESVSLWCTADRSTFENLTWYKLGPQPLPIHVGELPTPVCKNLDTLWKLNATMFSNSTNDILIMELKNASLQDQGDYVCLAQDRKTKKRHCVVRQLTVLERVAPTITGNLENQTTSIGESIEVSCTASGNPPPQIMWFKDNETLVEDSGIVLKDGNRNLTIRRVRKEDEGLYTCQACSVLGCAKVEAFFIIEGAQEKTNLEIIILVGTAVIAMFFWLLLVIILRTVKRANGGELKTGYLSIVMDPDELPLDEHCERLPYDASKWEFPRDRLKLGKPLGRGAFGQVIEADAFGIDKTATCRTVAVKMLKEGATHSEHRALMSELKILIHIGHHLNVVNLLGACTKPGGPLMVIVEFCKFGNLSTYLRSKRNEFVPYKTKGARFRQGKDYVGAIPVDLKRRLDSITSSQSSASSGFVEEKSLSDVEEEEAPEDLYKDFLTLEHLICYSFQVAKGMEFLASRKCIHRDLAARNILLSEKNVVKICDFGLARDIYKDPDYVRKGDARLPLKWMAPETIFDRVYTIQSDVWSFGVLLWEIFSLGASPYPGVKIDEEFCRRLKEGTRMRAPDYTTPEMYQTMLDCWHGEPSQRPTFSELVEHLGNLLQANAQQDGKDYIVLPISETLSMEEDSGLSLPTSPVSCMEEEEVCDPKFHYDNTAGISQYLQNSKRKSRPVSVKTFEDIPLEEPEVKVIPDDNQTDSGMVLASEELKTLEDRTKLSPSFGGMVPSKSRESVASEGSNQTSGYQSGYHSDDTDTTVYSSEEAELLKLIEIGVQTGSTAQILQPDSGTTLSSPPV

Row | IC50 (KDR (h) (VEGFR2)) | BAF3-FLT3 (MIN IL3) 384 well pIC50 ([1]; minus IL3) | IC50 (FGFR3 (h)) | BAF3-FGFR4 pIC50 [2] | IC50 (FGFR2 (h)) | BAF3-FLT3 (MIN IL3) 96 well pIC50 ([1]; minus IL3, 96 well) | BAF3-FLT3 (MIN IL3) 384 well pIC50 ([1]; minus IL3, 384 well) | BAF3-FGFR4 pIC50 ([2]; 384 well) | BAF3-FLT3 (MIN IL3) 96 well pIC50 ([1]; minus IL3) | SMILES
1 | 339 nM | <5 | 22.4 nM | 5.5 | 17.4 nM |  |  |  |  | COCC(O)CN(c1cc(OC)cc(OC)c1)c1ccc2ncc(-c3cccnc3)nc2c1 (single isomer, unassigned) [Compound 47]
2 | > 1000 nM | <5 | 28.8 nM | 5.2 | 91.2 nM |  |  |  |  | COCC(CN(c1cc(OC)cc(OC)c1)c1ccc2ncc(-c3cccnc3)nc2c1)OC(C)=O (single isomer, unassigned) [Compound 52]
3 | 389 nM | <5 | 5.75 nM | 5.6 | 20 nM |  |  |  |  | COCC(CN(c1cc(OC)cc(OC)c1)c1ccc2ncc(-c3cccnc3)nc2c1)OC(C)=O (single isomer, unassigned) [Compound 76]
4 | 22.4 nM |  | 1.86 nM | 6.7 | 2.63 nM |  |  |  |  | COc1cc(OC)cc(N(CCN)c2ccc3ncc(-c4ccn(C)c4)nc3c2)c1 [Compound 79]
5 | > 10000 nM |  | 282 nM |  | 676 nM | <5 |  |  |  | COc1cc(OC)cc(N(CC2CC2)c2ccc3ncc(-c4ccnc(N5CCOCC5)c4)nc3c2)c1 [Compound 90]
6 | 776 nM |  | 10.2 nM | <5 | 25.7 nM |  |  |  |  | COc1cc(OC)cc(N(CCCO)c2ccc3ncc(-c4ccnc(Cl)c4)nc3c2)c1 [Compound 136]
7 | 347 nM |  | 7.41 nM | 5.6 | 25.1 nM |  |  |  |  | COc1cc(OC)cc(N(CCCO)c2ccc3ncc(-c4ccnc(F)c4)nc3c2)c1 [Compound 142]
8 |  |  | 17.8 nM | 6.05 | 7.41 nM |  |  |  |  | COc1cc(OC)cc(N(CCNC(C)C)c2ccc3ncc(-c4ccnn4C4CCCCO4)nc3c2)c1 (centres unmarked) [Compound 188]
9 | 126 nM |  | 6.17 nM | 6.23 | 2.29 nM |  |  |  |  | COc1cc(OC)cc(N(CCNC(C)C)c2ccc3ncc(-c4ccn[nH]4)nc3c2)c1 [Compound 189]

Second part, the molecule before the results:

Row | SMILES | IC50 (KDR (h) (VEGFR2)) | BAF3-FLT3 (MIN IL3) 384 well pIC50 ([1]; minus IL3) | IC50 (FGFR3 (h)) | BAF3-FGFR4 pIC50 [2] | IC50 (FGFR2 (h)) | BAF3-FLT3 (MIN IL3) 96 well pIC50 ([1]; minus IL3, 96 well) | BAF3-FLT3 (MIN IL3) 384 well pIC50 ([1]; minus IL3, 384 well) | BAF3-FGFR4 pIC50 ([2]; 384 well) | BAF3-FLT3 (MIN IL3) 96 well pIC50 ([1]; minus IL3)
10 | COCC(O)CN(c1cc(OC)cc(OC)c1)c1ccc2ncc(-c3cccnc3)nc2c1 (single isomer, unassigned) [Compound 46] | 295 nM | <5 | 7.24 nM | 5.8 | 12 nM |  |  |  | 
11 | COc1cc(OC)cc(N(CC#Cc2ncccn2)c2ccc3ncc(-c4cccnc4)nc3c2)c1 [Compound 2] | > 1000 nM | <5 | 56.2 nM | 6.9 | 34.7 nM |  |  |  | 
12 | COc1cc(OC)cc(N(CCCNCC(F)(F)F)c2ccc3ncc(-c4ccn(C)c4)nc3c2)c1 [Compound 5] | 126 nM | <5 | 9.55 nM | 5.7 | 15.1 nM |  |  |  | 
13 | COc1cc(OC)cc(N(CCO)c2ccc3ncc(-c4ccc(N5CCOCC5)nc4)nc3c2)c1 [Compound 19] | 170 nM | <5 | 1.95 nM | 6.1 | 10.7 nM |  |  |  | 
14 | COc1cc(OC)cc(N(CC2CC2)c2ccc3ncc(C#Cc4cncn4C)nc3c2)c1 [Compound 22] | 1660 nM |  | 34.7 nM |  | 95.5 nM | <5 | <5 | <5 | 
15 | COc1cc(OC)cc(N(CCCNCC(F)(F)F)c2ccc3ncc(-c4cnc(OC)nc4)nc3c2)c1 [Compound 26] | > 1000 nM |  | 100 nM | ~5.1 | 138 nM |  |  |  | 
16 | COc1cc(OC)cc(N(CC2CC2)c2ccc3ncc(C(=O)Nc4cncn4C)nc3c2)c1 [Compound 27] | > 10000 nM | <5 | 2630 nM | <5 | ~4170 nM |  |  |  | <5
17 | COc1cc(OC)cc(N(CC2CC2)c2ccc3ncc(NC(=O)c4ccc(F)cc4)nc3c2)c1 [Compound 28] | > 10000 nM | <5 | 1200 nM | <5 | 6170 nM |  |  |  | <5
18 | CO/N=C(\C)c1cnc2ccc(N(CCO)c3cc(OC)cc(OC)c3)cc2n1 [Compound 29] | > 1000 nM | <5 | 38.9 nM | <5 | 115 nM |  |  |  | 
19 | COc1cc(OC)cc(N(CCN2CCOCC2)c2ccc3ncc(-c4ccc(NC(=O)N5CCOCC5)nc4)nc3c2)c1 [Compound 35] | 229 nM | <5 | 10 nM | 6.0 | 26.3 nM |  |  |  | 
20 | COc1cc(OC)cc(N(CC2CC2)c2ccc3ncc(-c4ccnc(N5CCN(C)CC5)c4)nc3c2)c1 [Compound 37] | 1380 nM |  | 36.3 nM |  | 95.5 nM | 5.59 | 5.05 | 5.3 | 
21 | COc1cc(OC)cc(N(CCO)c2ccc3ncc(-n4cnc(CO)c4)nc3c2)c1 [Compound 38] | 708 nM | <5 | 10.5 nM | 5.8 | 25.7 nM |  |  |  | 
